Three molecules from patent US20220152031A1, “PYRIDAZINONES AND METHODS OF USE THEREOF” (Goldfinch Bio, Inc., priority 2019, published 2022) can be followed below.

Structures are written as SMILES. Entries after “also recorded” stand apart in the source; their conditions may differ.

One series deals with T1, TRPC4 (Homo sapiens, UniProt Q9UBN4).
T1 construct: expressed in transfected cells
T1 sequence (Q9UBN4 1-982 isoform Q9UBN4-5): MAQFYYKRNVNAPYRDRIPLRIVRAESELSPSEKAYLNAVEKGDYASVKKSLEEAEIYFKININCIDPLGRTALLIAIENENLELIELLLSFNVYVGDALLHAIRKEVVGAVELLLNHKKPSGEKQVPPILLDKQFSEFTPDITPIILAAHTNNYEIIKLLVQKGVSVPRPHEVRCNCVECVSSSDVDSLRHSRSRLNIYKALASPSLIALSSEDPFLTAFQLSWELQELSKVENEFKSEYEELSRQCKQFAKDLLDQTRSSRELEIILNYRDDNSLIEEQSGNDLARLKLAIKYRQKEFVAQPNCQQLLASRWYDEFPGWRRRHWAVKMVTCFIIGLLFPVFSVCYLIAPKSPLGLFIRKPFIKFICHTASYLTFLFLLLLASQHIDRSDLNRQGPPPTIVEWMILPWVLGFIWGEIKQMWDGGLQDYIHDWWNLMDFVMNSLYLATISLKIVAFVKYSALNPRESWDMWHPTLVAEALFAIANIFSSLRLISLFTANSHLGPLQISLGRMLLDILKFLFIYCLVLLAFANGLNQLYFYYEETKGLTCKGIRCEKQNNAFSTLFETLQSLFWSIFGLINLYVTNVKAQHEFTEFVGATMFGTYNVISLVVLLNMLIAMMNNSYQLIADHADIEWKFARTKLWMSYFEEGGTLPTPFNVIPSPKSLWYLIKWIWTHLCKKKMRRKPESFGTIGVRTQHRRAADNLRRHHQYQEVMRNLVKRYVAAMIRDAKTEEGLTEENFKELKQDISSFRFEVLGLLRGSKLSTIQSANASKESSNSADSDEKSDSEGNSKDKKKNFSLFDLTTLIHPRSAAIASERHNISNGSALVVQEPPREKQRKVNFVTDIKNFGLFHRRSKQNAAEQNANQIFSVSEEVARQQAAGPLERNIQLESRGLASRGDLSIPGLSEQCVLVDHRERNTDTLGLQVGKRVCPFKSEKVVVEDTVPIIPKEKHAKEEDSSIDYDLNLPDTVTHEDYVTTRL
The experiment in a line: TRPC4 activity assay (FLIPR calcium fluorescence, HEK-TREx hTRPC4 cells). The series is classed as cell-based. Conditions: Table 5, HEK-TREx hTRPC4; read-out: TRPC4 FLIPR IC50. The method, then:
ICLN-1694 cells (HEK-TREx hTRPC4) expressing TRPC4 were generated as follows. Commercially available HekTrex-293 cells were seeded at 0.7×10^6 cells/well in a 1×6-well plate 24 hrs prior to transfection using 2 mL cell growth media containing no antibiotics (lx DMEM/high glucose (Hyclone #SH30022.02); 10% fetal bovine serum (Sigma) 2 mM sodium pyruvate, 10 mM HEPES). […] On day 2, 2 μg of plasmid DNA plus 6 μl of Xtreme-GENE HP reagent in Optimem (200 μl total volume) was prepared and incubated for 15 min at room temperature. This plasmid solution was then gently overlayed dropwise onto each well and the plate was gently swirled to mix complex with the media for approximately 30 seconds. Transfected cells were incubated at 37° C. in a 10% CO2 incubator for 24 hrs. The transfected cells were harvested and transferred into 2×150 mm dishes containing cell growth media with no antibiotics at 37° C.
The next day selection was initiated to generate a stable pool by adding cell growth media containing 150 μg/mL Hygromycin and 5 μg/mL Blasticidin and cells were allowed to grow. Media with the selection agent was changed every 1-2 days as needed to remove dead cells. After 7 days, the hygromycin concentration was reduced to 75 μg/mL and cells growth was allowed to continue.
Single clones were selected as follows. The stable pool was diluted to 10 cells/mL and seeded (100 μl/well) into 24×96 well plates (˜1 cell/well) and allowed to grow for 7 days in cell growth media. Fresh media (100 μl) was added and the cells allowed to grow for another 1-2 weeks and then stored frozen or used immediately.
10-point dose response curves were generated using the Echo-550 acoustic dispenser. Compound source plates were made by serially diluting compound stocks to create 10 mM, 1 mM, and 0.1 mM solutions in DMSO into Echo-certified LDV plates. The Echo then serially spotted 100% DMSO stock solutions into source dose response plates to generate a 4-fold dilution scheme. 100% DMSO was added to the spotted dose response plates to bring the final volume to 5 μl. 300 nl of the dose response stock plate was then spotted into pre-incubation and stimulation assay plates. 50 μl of pre-incubation buffer and 100 μl of stimulation buffer was then added to the plates resulting in a final assay test concentration range of 30 μM to 0.0001 μM with a final DMSO concentration of 0.3%.
ICLN-1694 cells (HEK-TREx hTRPC4) were plated onto 384 well, black pdl-coated microplates and maintained in cell growth media supplemented with 1 μg/mL tetracycline the day prior to use for experiments. TRPC4 expression was induced by the application of 1 μg/mL tetracycline at the time of plating. […] Cells were incubated at room temperature, protected from light, for 60-90 minutes. After the incubation period, the dye was removed and replaced with 10 μl of EBSS. Cell, pre-incubation and stimulation plates were loaded onto the FLIPR-II and the assay was initiated. The FLIPR measured a 10 second baseline and then added 10 μl of 2× compounds (or controls). Changes in fluorescence were monitored for an additional 5 minutes. After a 5 minute pre-incubation, 20 μl of 2× Englerin A (with 1× compound or controls) was added to the cell plate. The final Engerlin A stimulation concentration in the assay was 100 nM. After the Englerin A addition, changes in fluorescence were monitored for an additional 5 minutes.
Compound modulation of TRPC4 calcium response was determined as follows. After the Englerin A, fluorescence was monitored for a 5-minute period. The maximum relative fluorescence response (minus the control response of 1 μM of an internal control compound known to maximally block TRPC4 calcium response, the “REF INHIB” in the formula below) was captured and exported from the FLIPR.
Compound effect is calculated as % inhibition using the following formula: […]
wherein “RFU” is the relative fluorescent units.

The next series concerns PAN-injured rats. Nature of the series: Puromycin aminonucleoside (PAN)-induced glomerular injury in rats. The series is classed as in vivo, Sprague-Dawley rats. Conditions: for albuminuria: PAN model of glomerular injury in rats. The text has this:
The objective of this study is to evaluate the dose-dependent effects of compound 100 on PAN induced glomerular kidney injury as indexed by albuminuria. Eighty (80), male Sprague-Dawley rats weighing approximately 125-150 g and approximately 5-6 weeks of age were acquired from Charles River. They were fed a standard chow diet (Harlan 8640), housed under standard conditions, and allowed to acclimate for at least 5 days prior to study inception. On D-2, rats were placed into weight-matched treatment groups and were placed, individually housed, into metabolic cages for the balance of the study. A 24 hour baseline (Day 0) urine was collected followed by a baseline blood collection via conscious tail venous puncture. Rats were then administered vehicle or test article. Two (2) hours following administration of vehicle or test agent on Day 0, rats received an administration of (5 mL/kg, s.c.) vehicle (sterile saline) or puromycin aminonucleoside (PAN; challenge agent; 75 mg/kg) dissolved in vehicle. Intermittent (Day 4, 7 and 10) 24 hour urine volumes were determined and samples (4 samples/animal/time point; 0.5 mL/sample) were obtained. Additionally, intermittent (Day 4, 7 and 10) blood samples were collected via conscious tail venous puncture 2 hours±1 minute post-AM dose. Immediately following the last blood collection, rats were anesthetized with isoflurane, tissues harvested, and animals sacrificed. Endpoint kidney weights and indices were obtained. Urine samples were immediately flash-frozen in liquid N2 and stored at −80° C. until analyzed. Whole blood samples collected on K3EDTA were processed appropriately for the production of plasma for PK measurements.

A short description of series [1]: Drug exposure in human kidney organoid implanted under the rat kidney capsule after oral dosing. Type of series: in vivo. Conditions: 10 mg/kg PO QD for 3 consecutive days, necropsy after 3 days. The method, then: Initially a space was created under the kidney capsule with angled fine forceps. A 22G blunt needle was used to further open the space under the kidney capsule. An angled cut was made at the tip of the 18G feeding tube attached to a 1 mL syringe. The 18G feeding tube was pre-wet with APEL2 medium, and one organoid from the dish containing APEL2 with the 18G feeding tube was carefully aspirated, keeping the entire organoid close to the tip of the 18G feeding tube, and not aspirating organoid into the syringe. An 18G feeding tube containing the organoid was inserted into the space created under the kidney capsule, and the organoid was injected towards the back end of the created space. The animal was closed, and then the procedure was repeated on the second kidney. After the second transplant, the animal was closed again and allowed to recover from anesthesia. The next organoid was started to be removed from TW (2+1 spare organoids) upon closing of animal after second kidney capsule transplant.
Compound 100 was administered to animals after transplant orally, once-daily as follows:
After 3 days, necropsy was performed to study distribution of compound 100 in the animal.

The test system of a further series is AT1R transgenic rats. The experiment in a line: AT1R transgenic rat model of FSGS. Type of series: in vivo. Conditions: oral once daily 3 mg/kg or 10 mg/kg; UniNX and AngII infusion; up to 3 weeks of treatment. How it is done:
The AT1R transgenic rat model of FSGS is characterized by podocyte-specific expression of human AT1R. […] See Zhou et al., Science (2017), vol. 358 (6368), 1332-1336. In the present study, pathophysiology in AT1R transgenic rats was accelerated with unilateral nephrectomy (UniNX) and minipump AngII infusion. Compound 100 was dosed orally once daily at 3 mg/kg or 10 mg/kg, and the urine protein creatinine ratio was determined at −1, 0, 1, 2, and 3 weeks of treatment.

For `CC(c1ccc(F)cc1C(F)(F)F)N1C[C@@H](C)N(c2cn[nH]c(=O)c2Cl)CC1=O` (single isomer, unassigned) [MD], the IC50 at TRPC4 was 0.01 to 1000 nM.

As to `NC(=O)c1ncn([C@@H]2O[C@H](CO)[C@@H](O)[C@H]2O)c1O` [Mizoribine, mizoribine, reference compound], the albuminuria entry in the series on PAN-injured rats was “efficacious in reducing albuminuria”.

As for `O=c1[nH]ncc(N2CCc3c(ncnc3Oc3ccc(F)cc3C(F)(F)F)C2)c1Cl` [Compound 100, 4-chloro-5-[4-[4-fluoro-2-(trifluoromethyl)phenoxy]-5H,6H,7H,8H-pyrido[3,4-d]pyrimidin-7-yl]-2,3-dihydropyridazin-3-one], the “drug exposure in implanted organoid” value in series [1] is recorded as “drug exposure in the implanted organoid; also recorded: drug exposure in an implanted organoid”. In the series on AT1R transgenic rats, the “efficacy (urine protein creatinine ratio)” value was “efficacious”. For the same molecule, the urinary albumin excretion entry was “Significant reductions” in the series with PAN-injured rats (30 mg/kg BID dosing, at 7 and 10 days); “Significant reductions” in the series on PAN-injured rats (30 mg/kg QD dosing, at 10 days); “reduced urinary albumin excretion” with PAN-injured rats (30 mg/kg once (QD) or twice (BID) daily, following injury with PAN). Moreover, in the series with PAN-injured rats, the albuminuria result is listed as “effective in reducing albuminuria”.

One may read the IC50 as the concentration that gives 50% inhibition.
